Each structure is given as a SMILES string. Starred links: 1 amine or outer side, 2 acyl side, 3 side chain; linkers in the order of their positions; H or OH if unused. Positions of bridges follow the written chain, without caps; N, C: chain ends. Non-standard residues stand in square brackets, D forms with d. Residues, ends and D or L forms follow the SMILES beside them. ξ: configuration not given here. *: point of attachment. ξOrn(4,5-diOH) = O=C(C(CC(O)C(O)N[*:3])N[*:1])[*:2]; ξhTyr(βξ-OH,γξ-OH) = NC(C(=O)O)C(O)C(O)c1ccc(O)cc1; ξPro(3ξ-OH,4ξ-Me) = CC1CNC(C(=O)O)C1O; X2 = NC(=O)CC(O)C(N[*:1])C(=O)[*:2]; X1 = CCC(C)CC(C)CCCCCCCCC(=O)*; Hyp = O=C(O)[CH]1C[CH](O)CN1

Data set [1] relates to Candida albicans. Put plainly: similar assay (MIC), expanded panel of 34 strains of Candida albicans. The data set is classed as cell-based. The settings on record: 48 h; only against 5 of 34 strains of Candida albicans. The method, then:
(§1) The activity may be seen in an agar dilution assay employing a yeast nitrogen base dextrose agar medium. In carrying out the assay, Compound I was solubilized in 10 percent dimethyl sulfoxide (DMSO) supplemented with one drop of Tween 20. Twofold dilutions were made with sterile distilled water/10 percent DMSO to obtain final drug concentrations in the agar dilution assay plates ranging from 128 to 0.06 μg/ml.
(§2) The yeast cultures, maintained in yeast maltose (YM) broth, were transferred to fresh YM medium and incubated overnight at 35° C. with shaking (250 rpm). After incubation, each culture was diluted in sterile saline to yield a final concentration of 3×10^5 to 3×10^6 colony forming units (CFU)/ml.
(§3) Each prepared plate was inoculated using a Denley Multipoint Inoculator (Denley, Sussex, England) which delivers approximately 0.001 milliliter to the ar surface resulting in inoculation of from 3×10^2 to 3×10^3 CFUs. The plates were incubated at 28° C. for 48 hours. The minimum inhibitory concentrations (MICs) were recorded as the lowest concentrations of drug showing no growth or less than three CFU/spot.
In a similar assay, Compound I was tested against an expanded panel of 34 different strains of Candida albicans and 13 different strains of Candida parapsilosis.

A short description of data set [2]: in vitro. The data set is classed as cell-based. As to conditions: mouse; fresh blood of CD-1 female mice; 25° C., two hours; highest drug concentration that did not lyse the red blood cells; tested 0.39 to 400 μg/ml in 5 percent dextrose; read-out: minimum lytic concentration (MLC). How it is done:
The property of Compound I of requiring concentration of drug far above the therapeutic dose levels to effect red blood cell lysis was discovered in a standard titration/hemolysis assay using fresh blood drawn from CD-1 female mice. Concentration of drug in the range of from 0.39 to 400 μg/ml in 5 percent dextrose and a drug free control were employed.
In carrying out the determination, the assay tubes prepared by mixing together 2 milliliters of appropriate drug dilution and 0.5 milliliter of red blood cell suspension were gently shaken to mix the contents and then the tubes were incubated at 25° C. for two hours. At the end of this time, the tubes were examined visually for complete or partial red blood cell hemolysis and compared to a drug free control. […] The MLC for Compound I was 400 μg/ml.

The subject of data set [3] is Candida albicans. Kind of data set: agar dilution assay (MIC), Candida albicans. The settings on record: C. albicans strain MY1029; possible media interference with drug activity. It is filed as cell-based. How it is done: as §1, §2, §3
Data set [4] in a line: solubility in organic solvents. As to conditions: methanol, ethanol, dimethylformamide, dimethyl sulfoxide, ethyl acetate and the like.
The test system of data set [5] is Candida albicans. Kind of data set: mice infected with Candida albicans. It is filed as in vivo.
The subject of data set [6] is yeasts Saccharomyces cerevisiae, Candida albicans, Candida rugosa, Brettanomyces bruxellensis, Torulospora hansenii, Candida guilliermondii, Candida …. Kind of data set: disc diffusion method, yeasts. It is filed as cell-based. As to conditions: 25 microliter/disc, 28° C. or 37° C., 24 hours. How it is done:
(§4) This may be seen in an antifungal assay employing a disc diffusion method against yeasts and filamentous fungi (molds).
(§5) In the disc diffusion method, seeded assay plates are first prepared in one of the following manners according to the type of organism.
Inocula for yeasts are prepared from overnight broth cultures then diluted into potato dextrose […] to a final concentration of either 40 percent or 70 percent transmission at 660 nm.
(§6) For three strains of Candida albicans and one strain of Saccharomyces cerevisiae, sterile saline is employed in place of potato dextrose broth. Assay plates are prepared by diluting the inoculum into appropriate molten agar medium, cooled to 45° C. to obtain a final concentration of 4 percent (volume/volume).
(§7) The seeded agar media thus prepared are dispensed into petri dishes for assays (11 milliliters per dish).
The samples to be tested for production of antifungal agent are applied to 6.2 mm. filter paper discs (25 microliter/disc) and air dried at 24° C. When the sample to be tested is a crude broth, it may be centrifuged prior to application. The discs bearing the material to be tested are then applied employing sterile conditions to the seeded assay plates and the samples rewet with 25 percent sterile aqueous dimethylsulfoxide (25 μl/disc). […] Following incubation, the inhibition zones are measured and recorded.

The subject of data set [7] is filamentous fungi Cochliobolus miyabeanus, Penicillium sp. (three strains), Aspergillus niger, Trichoderma sp., Trichoderma liqnorum, Alternaria solani …. Put plainly: disc diffusion method, filamentous fungi. It is filed as cell-based. The settings on record: 25 microliter/disc, 28° C. or 37° C., 24 hours. The method, then:
as §4, §5
Inocula for filamentous fungi are prepared by scraping the surface of stock plates maintained on potato dextrose agar with a moistened sterile dacron swab. The spores and mycelia are then suspended in 10 milliliters of sterile potato dextrose broth and adjusted to 70 percent transmission at 660 nm.
as §6, §7
The samples to be tested for production of antifungal agent are applied to 6.2 mm. filter paper discs (25 microliter/disc) and air dried at 24° C. When the sample to be tested is a crude broth, it may be centrifuged prior to application. […] Following incubation, the inhibition zones are measured and recorded.

The compound `CCC(C)CC(C)CCCCCCCCC(=O)NC1CC(O)C(O)NC(=O)C2C(O)C(C)CN2C(=O)C(C(O)CC(N)=O)NC(=O)C(C(O)C(O)c2ccc(O)cc2)NC(=O)C2CC(O)CN2C(=O)C(C(C)O)NC1=O` [Compound I, 1-[(4R, 5R)-4,5-dihydroxy-N^2-(10,12-dimethyl-1-oxotetradecyl)-L-ornithine]-5-(threo-3-hydroxy-L-glutamine)echinocandin B] (X1-[ξOrn(4,5-diOH)]T[Hyp][ξhTyr(βξ-OH,γξ-OH)][X2][ξPro(3ξ-OH,4ξ-Me)]; lactam 1-C; configuration not given here) gave an MIC in data set [1] greater than 1 µg/mL. In addition, the MNTC at 2 h in data set [2] worked out at 400 µg/mL. Besides, the “growth observed (footnote to MIC)” value in data set [3] is on record as “Substantially reduced growth was observed”. The “solubility in organic solvents” value in data set [4] is on record as “soluble”. The “eradication of Candida albicans from kidneys” value in data set [5] (kidneys of experimentally infected mice) was “eradicate Candida albicans from kidneys”. In data set [5] (mice infected with Candida albicans), the “survival of mice infected with Candida albicans” value is given as “significantly prolong the survival”. The “antifungal properties (inhibition zones)” value in data set [6] and in data set [7] was “good antifungal properties” throughout.

These data come from patent publication US4931352A, “Antifungal fermentation product” (Merck & Co., Inc., priority 1989, dated 1990).
